Data as given in paper PMC6368337, “GluClR-mediated inhibitory postsynaptic currents reveal targets for ivermectin and potential mechanisms of ivermectin resistance” (PLoS Pathogens, 2019).

Columns and labels:
αβ (1:1) GluClRs = αβ (1:1) GluClRs (Haemonchus contortus, UniProt O46124+P91730); experiment: IPSC recording in HEK293-neuron heteroculture, αβ (1:1) GluClRs; type: cell-based, H. contortus; conditions: 5 nM IVM
Protocol: cDNAs encoding the α (avr-14b) (pcDNA 3.1+) or β (pUNIV) GluClR subunits of H. contortus were nuclear injected into oocytes (NASCO, WI USA) or transfected into HEK293AD cells (CellBank Australia) using a calcium phosphate-DNA co-precipitate method. Synapse formation between neurons and HEK293 cells was promoted by co-transfecting neuroligin 2A or 1B and the cDNA encoding CD4 surface antigen was also added to the transfection mixture so as to identify transfected cells. The oocytes and HEK cells were used for experiments 2–3 days after the introduction of the cDNAs. All experiments were done at room temperature (22 ± 1°C).
Primary neuronal cultures were prepared from cortices of E18 rat embryos, (University of Queensland Biological Services), which were triturated and plated at 100,000 cells per 18-mm poly-D-lysine-coated coverslip in DMEM with 10% fetal bovine serum. After 24 h the entire medium was replaced with Neurobasal medium that included 2% B27 and 1% GlutaMAX supplements. After one week half of this medium was replaced and the neurons were allowed to grow in vitro for 3–5 weeks before introducing the transfected HEK293 cells. Recordings of synaptic currents were done in whole-cell configuration at ‐70 mV using an Axopatch 200B amplifier (Molecular Devices), filtered at 5 kHz and digitized at 20 kHz using Clampex (pClamp 10 suite, Molecular Devices) via a Digidata 1440A digitizer.

β GluClRs = β GluClRs (Haemonchus contortus, UniProt P91730); experiment: Single channel recording, outside-out patches, β GluClRs; type: cell-based, H. contortus; conditions: 2 μM glutamate plus 5 nM IVM
Chain of β GluClRs (P91730 19-432): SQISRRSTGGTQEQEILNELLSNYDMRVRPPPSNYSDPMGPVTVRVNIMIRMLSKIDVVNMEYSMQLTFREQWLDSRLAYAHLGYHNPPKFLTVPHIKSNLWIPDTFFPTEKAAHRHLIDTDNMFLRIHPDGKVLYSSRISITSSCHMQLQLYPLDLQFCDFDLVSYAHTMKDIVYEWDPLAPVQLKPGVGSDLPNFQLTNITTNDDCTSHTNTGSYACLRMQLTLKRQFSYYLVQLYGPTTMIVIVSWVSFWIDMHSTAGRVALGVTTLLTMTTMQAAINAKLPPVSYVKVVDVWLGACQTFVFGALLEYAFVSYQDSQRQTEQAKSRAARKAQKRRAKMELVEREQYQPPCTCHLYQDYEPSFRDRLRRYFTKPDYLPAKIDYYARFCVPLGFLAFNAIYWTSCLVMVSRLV
Text: To explore whether a similar mechanism applies to β-containing GluClRs, we recorded single receptor currents in excised patches from cells transfected with either the α and β subunits (1:1) or the β subunit alone. […] By contrast, patches from cells transfected with the β subunit alone invariably opened to an amplitude of 0.4 pA (Fig 6C). Amplitude histograms confirmed two amplitude levels for αβ GluClRs and a single amplitude for the β GluClRs (Fig 6D). […] We infer that the αβ GluClRs that open to 0.7 pA likely contain a greater proportion of β subunits. This is consistent with β GluClRs having the smallest amplitude and α GluClRs having the greatest amplitude (1.8 pA) under similar recording conditions. The calculated conductance values for the corresponding amplitudes for αβ GluClRs was 15.2 pS and 8.9 pS and for the β GluClRs was 5.1 pS.
Single-channel currents were recorded from outside-out excised patches at a clamped potential of −70 mV. The single channel conductance was calculated by dividing the mean current by the net driving force at a clamped potential of ‐70 mV, after accounting for reversal and liquid junction potentials. Excised patches were continuously perfused via a gravity-fed double-barrelled glass tube, which contained extracellular bath solution containing (in mM), 140 NaCl, 5 KCl, 1 MgCl2, 2 CaCl2, 10 HEPES, and 10 D-glucose and titrated to pH 7.4. Glutamate and IVM were dissolved in this extracellular solution. Recording electrodes were pulled from borosilicate glass (G150F-3; Warner Instruments), coated with a silicone elastomer (Sylgard-184; Dow Corning) and heat-polished to a final tip resistance of 4–15 MΩ when filled with an intracellular solution containing (in mM) 145 CsCl, 2 MgCl2, 2 CaCl2, 10 HEPES, and 5 EGTA, pH 7.4. […] A 10 mM stock of IVM (Sigma-Aldrich) was dissolved in 100% DMSO and kept frozen at ‐20°C. Fresh working stocks of IVM at 5 nM were prepared by dissolving the appropriate quantity directly in extracellular solution. 100% DMSO when dissolved in extracellular solution alone at the same concentration as was present in working solutions containing 5 nM IVM had no effect on patches excised from cells transfected with GluClRs or from untransfected cells.
Currents were recorded using an Axopatch 200B amplifier (Molecular Devices), filtered at 5 kHz and digitized at 20 kHz using Clampex (pClamp 10 suite, Molecular Devices) via a Digidata 1440A digitizer.
Group data were analysed in SigmaPlot 13.0 using one-way ANOVAs, where p < 0.05 was taken as the significance threshold and expressed as mean ± SEM. Tests for normally distributed data are built into the SigmaPlot software. Confocal images were captured and analysed with Zen 2012 SP2 (Zeiss) software. Oocyte concentration-response data were fit to a Hill equation to obtain an EC50 and Hill co-efficient for each oocyte recording. These parameters were then averaged across multiple oocyte experiments of the same type. Single channel recordings were analysed in QuB software. […] Patches yielded between 30–250 individual active periods. […] The selected critical times eliminated periods of receptor desensitisation while retaining singe receptor active periods. Mean active period duration and intra-activation open probability was estimated from each patch. Group means were obtained by averaging across multiple patches for each recording condition.

Chain of αβ (1:1) GluClRs (P91730 19-432): as above
Chain of αβ (1:1) GluClRs (O46124 entry or part of it): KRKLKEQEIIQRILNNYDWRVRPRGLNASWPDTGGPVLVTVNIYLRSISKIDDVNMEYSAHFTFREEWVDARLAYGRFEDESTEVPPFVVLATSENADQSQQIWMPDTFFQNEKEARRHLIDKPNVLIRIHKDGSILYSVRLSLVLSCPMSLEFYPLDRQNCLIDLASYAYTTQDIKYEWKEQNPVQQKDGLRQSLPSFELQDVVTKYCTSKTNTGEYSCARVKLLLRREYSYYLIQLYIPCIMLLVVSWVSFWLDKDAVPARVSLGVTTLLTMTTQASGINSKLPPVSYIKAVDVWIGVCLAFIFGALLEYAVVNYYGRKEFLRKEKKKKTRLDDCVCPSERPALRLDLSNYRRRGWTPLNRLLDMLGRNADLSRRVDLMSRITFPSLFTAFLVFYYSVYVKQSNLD

Structure (SMILES): CC[C@H](C)[C@H]1O[C@]2(CC[C@@H]1C)C[C@@H]1C[C@@H](C/C=C(\C)[C@@H](O[C@H]3C[C@H](OC)[C@@H](O[C@H]4C[C@H](OC)[C@@H](O)[C@H](C)O4)[C@H](C)O3)[C@@H](C)/C=C/C=C3\CO[C@@H]4[C@H](O)C(C)=C[C@@H](C(=O)O1)[C@]34O)O2 [IVM, Ivermectin]
- IPSC activation (10–90% rise) time (αβ (1:1) GluClRs; 15 minutes): 10 ± 1 ms
- peak IPSC amplitude (αβ (1:1) GluClRs; 15 minutes): 124 ± 18 pA
- IPSC decay time constant (αβ (1:1) GluClRs; 15 minutes after start of application, −70 mV): 72 ± 4 ms
- intra-activation open probability (PO) (β GluClRs): 0.62 ± 0.04
- mean active period duration (β GluClRs): 120 ± 21 ms
